Data: patent publication US9340577B2, “HLA binding motifs and peptides and their uses” (priority 1992, dated 2016)
No end group written: not given here.

Assays:
Experiment in all cases: biochemical
Type in all cases: binding
DR1 (DRB1*0101) = DR1 (DRB1*0101) (Homo sapiens, UniProt P01903+P01911, A100R/D57E/F55L/F60I/F76Y/I96L/L162R/M171V/P40L/Q125E/R42F/V115G/Y59C)
A31 (A*3101) = A31 (A*3101) (Homo sapiens, UniProt P04439, A270S/D185E/E176V/E277Q/F33T/G231S/G80R/H175R/I121M/I218V/I322F/K168Q/L300P/L318F/M331R/P217A/Q94H/R138Q/T323A/T345S/T97I/V358M)
A*3301 = A*3301 (Homo sapiens, UniProt P04439, A270S/D185E/E176V/E277Q/E87N/F33T/G231S/H175R/I121M/I218V/I322F/K168Q/K210R/L300P/L318F/M331R/P217A/Q86R/Q94H/R138Q/T323A/T345S/T97I/V358M/Y195H)
A*6801 = A*6801 (Homo sapiens, UniProt P04439, A269V/D185E/E176V/E277Q/E87N/F33Y/G231S/I121M/I166T/I218V/L180W/L300P/L318F/N151K/P208A/P217A/Q86R/R169H/T345S)
HLA-A11 (A*1101) = HLA-A11 (A*1101) (Homo sapiens, UniProt P04439, A114D/D185E/E176A/F33Y/L180Q/S129P/T187R)
HLA-A3.2 (A*0301) = HLA-A3.2 (A*0301) (Homo sapiens, UniProt P04439)

| Sequence | IC50 (DR1 (DRB1*0101)) | IC50 (A31 (A*3101)) | IC50 (A*3301) | IC50 (A*6801) | IC50 (HLA-A11 (A*1101)) | IC50 (HLA-A3.2 (A*0301)) |
| --- | --- | --- | --- | --- | --- | --- |
| ETELVEPLIPSGAMP [Peptide 9014.0152] | 0.055 µM |  |  |  |  |  |
| ETELVEPLLPSGAMP [Peptide 9014.0153] | 0.335 µM |  |  |  |  |  |
| ETELVEPLSPSGAMP [Peptide 9014.0155] | 0.117 µM |  |  |  |  |  |
| ETELVEPLVPSGAMP [Peptide 9014.0156] | 0.085 µM |  |  |  |  |  |
| ETEVVEPLTPSGAMP [Peptide 9014.0146] | 0.04 µM |  |  |  |  |  |
| ETEWVEPLTPSGAMP [Peptide 9014.0147] | 0.024 µM |  |  |  |  |  |
| ETEYVEPLTPSGAMP [Peptide 9014.0148] | 0.023 µM |  |  |  |  |  |
| GTDMKLRLAASPETH [Peptide 9014.0096] | 0.022 µM |  |  |  |  |  |
| GTDMKLRLFASPETH [Peptide 9014.0097] | 0.17 µM |  |  |  |  |  |
| GTDMKLRLHASPETH [Peptide 9014.0098] | 0.823 µM |  |  |  |  |  |
| VTIYYGVPVWR [Peptide 1525.04] |  | 0.004 µM | 0.051 µM | 0.0034 µM | 0.003 µM | 0.92 µM |
| VTVKIGGELK [Peptide 1516.03] |  | > 20 µM | > 20 µM | 0.033 µM | 0.039 µM | 4.11 µM |
| VTVKVGGQLR [Peptide 1516.06] |  | 0.503 µM | 12.7 µM | 0.096 µM | 0.199 µM | 8.93 µM |
| VTVQYDNDKK [Peptide 88.0216] |  | > 20 µM | > 20 µM | 1.15 µM | 0.1 µM | 18.2 µM |
| VTVYYGIPVWR [Peptide 1525.05] |  | 0.0038 µM | 0.0045 µM | 0.0036 µM | 0.017 µM | 0.123 µM |
| VTVYYGVPIWK [Peptide 1525.02] |  | 0.15 µM | 1.35 µM | 0.005 µM | 0.0023 µM | 0.018 µM |
| VTVYYGVPVWR [Peptide 1525.01] |  | 0.019 µM | 0.511 µM | 0.029 µM | 0.022 µM | 0.56 µM |
| VTYNSEVQR [Peptide 1589.29] |  | 0.04 µM | 0.152 µM | 0.023 µM | 0.025 µM | 0.071 µM |
| VVLLLVRYK [Peptide 1587.05] |  | 0.0012 µM | 0.021 µM | 0.54 µM | 0.021 µM | 0.013 µM |
| VVPAYNISK [Peptide 88.0397] |  | > 20 µM | > 20 µM | 0.992 µM | 0.014 µM | 0.069 µM |
| VVQQLLMGA [Peptide 78.0338] |  | 2.83 µM | 0.438 µM | 1.44 µM | > 20 µM | > 20 µM |
| VVVKSPNHVK [Peptide 9012.0255] |  | 7.7 µM | > 20 µM | 0.32 µM | 0.088 µM | 0.256 µM |
| VVYRDSIPH [Peptide 78.0275] |  | > 20 µM | > 20 µM | > 20 µM | 0.178 µM | 0.401 µM |
| WLIKRIRER [Peptide 9017.0122] |  | 0.085 µM | 0.02 µM | 0.05 µM | > 20 µM | 5.16 µM |
| WTIAYIEYR [Peptide 9017.0116] |  | 0.097 µM | 0.014 µM | 0.0086 µM | 0.031 µM | 11.3 µM |
| WTIAYIEYRK [Peptide 9017.0244] |  | 0.885 µM | 0.493 µM | 0.0012 µM | 0.062 µM | 4.65 µM |
| WTYFDTYMR [Peptide 88.0346] |  | 0.332 µM | 0.095 µM | 0.0038 µM | 0.293 µM | > 20 µM |
| YGFRLGFLK [Peptide 1556.27] |  | 0.224 µM | 0.839 µM | 0.016 µM | 0.001 µM | 0.041 µM |
| YQNFQNADK [Peptide 99.0371] |  | 44.7 µM | > 18.4 µM | 19.8 µM | 0.177 µM | 2.71 µM |
| YVMAGVGSPK [Peptide 9012.0253] |  | 5.73 µM | 0.219 µM | 0.018 µM | 0.013 µM | 0.025 µM |
